Measurements published in patent US8158088B2, “Extractant compositions for co-extracting cesium and strontium, a method of separating cesium and strontium from an aqueous feed, and calixarene compounds” (Battelle Energy Alliance, LLC, priority 2008, dated 2012).

Experiments:
Format in all cases: physicochemical
[1] = Cesium distribution ratio (DCs), equilibrium batch contact of mixed extractant solvent with nitric acid feed
Source text: The distribution of cesium and strontium between the first organic phase (the mixed extractant solvent including the dialkyloxycalix[4]arenebenzocrown-6 compound) and the first aqueous phase (aqueous feed) may be determined by conventional techniques. The distribution ratio for strontium (“DSr”) may be calculated as the ratio of organic phase activity to the aqueous phase activity at equilibrium. High values for the DSr indicate that the strontium is present predominantly in the organic phase while low values for the DSr indicate that the strontium is present predominantly in the aqueous phase. Similarly, the distribution ratio for cesium (“DCs”) may be calculated as the ratio of organic phase activity to the aqueous phase activity at equilibrium. High values for the DCs indicate that the cesium is present predominantly in the organic phase while low values for the DCs indicate that the cesium is present predominantly in the aqueous phase.
Distribution ratios (DM=[M]org/[M]aq) were measured by equilibrium batch contacts between the organic and aqueous phases at an organic-to-aqueous phase ratio (O/A) of unity (O/A=1). All distribution ratio measurements were conducted in a temperature controlled water bath at 25±1° C. The aqueous phase was of the appropriate HNO3 concentration, to which trace quantities (typically, less than 10^−7 M each) of the major radionuclides of interest (^137Cs, ^85Sr, ^154Eu, or ^241Am) were added. The organic and aqueous phases were contacted by vortex mixing for 1 minute. All batch contact experiments were performed at ambient temperature (from approximately 20° C. to approximately 25° C.) unless otherwise noted. Following extraction, the samples were centrifuged for 1 minute and the organic and aqueous phases separated by pipet or centrifugation. The distribution ratios (DSr, or DCs) were calculated as the ratio of the appropriate specific activities in the organic and aqueous phases as determined by γ-ray counting (gamma spectroscopy). The counting time was selected to provide less than approximately 1% statistical uncertainty.
(MC-8, MC-8B, MC-10, MC-10B, MC-12, or MC-12B), 0.075 M DtBuCH18C6, 0.75 M Cs-7SB modifier, and 0.003 M TOA in ISOPAR® L were evaluated for their respective abilities to simultaneously extract cesium and strontium from the aqueous feed simulant composition described in Table 2. The cesium and strontium distribution ratios of the mixed extraction solvents were compared to those of the FPEX I process solvent. The cesium extraction performance and strontium extraction performance of each of the mixed extractant solvents was determined using the batch contact flowsheet presented in FIG. 1, where “E1,” “E2,” and “E3” refer to three forward extraction acts: a first extraction act, a second extraction act, and a third extraction act, respectively, and “St1” and “St2” refer to two backward extraction acts: a first strip act and a second strip act, respectively. […] The aqueous feed 2 and the mixed extractant solvent 4 were combined in a vessel 6 to conduct the extraction. Two phases were formed during the extraction: the first organic phase and the first aqueous phase, with the cesium and strontium substantially distributed in the first organic phase.
The cesium and strontium distribution ratios for the mixed extractant solvents 4 were calculated for the first organic phase and are reported in Tables 3 and 4, respectively, as E1, along with the cesium and strontium distribution ratios for the FPEX I process solvent. The cesium and strontium were stripped from the first (and subsequent) organic phase to recover these radionuclides. For the strips or backward extractions, the first (and subsequent) organic phase was contacted with dilute acidic solution 8, which was 0.01 M HNO3. […]

[2] = Strontium distribution ratio (DSr), equilibrium batch contact of mixed extractant solvent with nitric acid feed
[3] = Solvent stability: cesium distribution ratios as a function of contact time with 1.5 M HNO3
Protocol: The stability of the mixed extractant solvents prepared using dialkyloxycalix[4]arenebenzocrown-6 compounds (MC-8, MC-8B, MC-10, MC-10B, MC-12, or MC-12B) relative to BOBCalixC6 in the FPEX I process solvent was determined. Samples were prepared using each of the dialkyloxycalix[4]arenebenzocrown-6 compounds and contacted with 1.5 M HNO3. The samples included 0.007 M of the respective dialkyloxycalix[4]arenebenzo-crown-6 compound (MC-8, MC-8B, MC-10, MC-10B, MC-12, or MC-12B), 0.075 M DtBuCH18C6, 0.75 M Cs-7SB modifier, and 0.003 M TOA in ISOPAR® L. The stability of the dialkyloxycalix[4]arene-benzocrown-6 based solvents was evaluated by measuring the cesium and strontium distribution ratios as a function of contact time. These cesium and strontium distribution ratios for the mixed extractant solvents are presented in Table 9 and Table 10, respectively, along with the cesium and strontium distribution ratios for the FPEX I process solvent. The symbol “-” is used in Tables 9 and 10 to indicate no data was collected.
This degradation is likely due to chemical attack or nitration of the BOBCalixC6 in the FPEX I process solvent. […] However, it is difficult to compare the relative extents of degradation. In order to compare the different extractants, the distribution ratio data presented in Tables 9 and 10 were normalized to the values obtained at t=0 days contact. The normalized cesium and strontium distribution ratios for the FPEX I process solvent and the mixed extractant solvents as a function of contact time are presented in FIGS. 2 and 3, respectively.

[4] = 0.010 M MC-8, contact E1, 1.5 M HNO3, 0.075 M DtBuCH18C6, 0.75 M Cs-7SB, 0.003 M TOA in ISOPAR L
[5] = 0.015 M MC-8, contact E1, 1.5 M HNO3
[6] = 0.020 M MC-8, contact E1, 1.5 M HNO3
[7] = 0.025 M MC-8, contact E1, 1.5 M HNO3
[8] = 1.0 M HNO3, 20 °C, contact E1, 0.025 M MC-8, 0.075 M DtBuCH18C6, 0.75 M Cs-7SB, 0.003 M TOA in ISOPAR L
[9] = 1.5 M HNO3, 20 °C, contact E1, 0.025 M MC-8
[10] = 2.0 M HNO3, 20 °C, contact E1, 0.025 M MC-8
[11] = 3.0 M HNO3, 20 °C, contact E1, 0.025 M MC-8
[12] = 4.0 M HNO3, 20 °C, contact E1, 0.025 M MC-8
[13] = 15 °C, contact E1, 1.0 M HNO3 feed, 0.025 M MC-8, 0.075 M DtBuCH18C6, 0.75 M Cs-7SB, 0.003 M TOA in ISOPAR L
[14] = 20 °C, contact E1, 1.0 M HNO3 feed, 0.025 M MC-8
[15] = 25 °C, contact E1, 1.0 M HNO3 feed, 0.025 M MC-8
[16] = 30 °C, contact E1, 1.0 M HNO3 feed, 0.025 M MC-8
[17] = 35 °C, contact E1, 1.0 M HNO3 feed, 0.025 M MC-8
[18] = contact E1, batch contact flowsheet, simulated feed 1.0 M HNO3, 0.025 M MC-8
[19] = contact E2, simulated feed 1.0 M HNO3, 0.025 M MC-8
[20] = contact E3, simulated feed 1.0 M HNO3, 0.025 M MC-8
[21] = contact St1 (strip), 0.025 M MC-8
[22] = contact St2 (strip), 0.025 M MC-8
[23] = first forward extraction, 1.5 M HNO3 feed simulant, 25 °C, 0.007 M calixarene, 0.075 M DtBuCH18C6, 0.75 M Cs-7SB, 0.003 M TOA in ISOPAR L
[24] = first strip with 0.01 M HNO3, 35 °C, 0.007 M calixarene solvent
[25] = second forward extraction, 1.5 M HNO3 feed, 25 °C, 0.007 M calixarene solvent
[26] = second strip with 0.01 M HNO3, 35 °C, 0.007 M calixarene solvent
[27] = third forward extraction, 1.5 M HNO3 feed, 25 °C, 0.007 M calixarene solvent

`CCCCCCCCOc1c2cccc1Cc1cccc3c1OCCOCCOc1ccccc1OCCOCCOc1c(cccc1Cc1cccc(c1OCCCCCCCC)C3)C2` [MC-8, 1,3-alternate-25,27-di(octyloxy)calix[4]arenebenzocrown-6] showed a DCs [1, 4] of 7.2, a DCs [1, 5] of 13.3 and a DCs [1, 6] of 21.5. It also gave a DCs [1, 7] of 29.4, a cesium distribution ratio ([1]; 0.05 M MC-8 (as printed in text), 1.5 M HNO3) of 29 and a DCs [1, 8] of 31.0. It also gave a DCs [1, 9] of 35.6, a DCs [1, 10] of 39.9 and a DCs [1, 11] of 3rd phase. It also gave a DCs [1, 12] of 3rd phase, a DCs [1, 13] of 44.5 and a DCs [1, 14] of 24.5. The DCs [1, 15] was 15.7, the DCs [1, 16] was 9.9 and the DCs [1, 17] was 6.2. The DCs [1, 18] was 34.7, the DCs [1, 19] was 29.0 and the DCs [1, 20] was 21.9. For the same compound, the DCs [1, 21] was 0.63, the DCs [1, 22] was 0.25 and the “Cesium distribution ratio, contact E1” value [1, 23] was 4.2. The “Cesium distribution ratio, contact St1” value [1, 24] was 0.6, the “Cesium distribution ratio, contact E2” value [1, 25] was 1.9 and the “Cesium distribution ratio, contact St2” value [1, 26] was 0.2. The “Cesium distribution ratio, contact E3” value [1, 27] was 1.5, the DSr [2, 4] was 8.9 and the DSr [2, 5] was 7.2. It also gave a DSr [2, 6] of 9.4, a DSr [2, 7] of 9.1 and a DSr [2, 8] of 7.4. It also gave a DSr [2, 9] of 12.4, a DSr [2, 10] of 16.2 and a DSr [2, 11] of 3rd phase. For the same compound, the DSr [2, 12] was 3rd phase, the DSr [2, 13] was 9.0 and the DSr [2, 14] was 6.0. It also gave a DSr [2, 15] of 4.6, a DSr [2, 16] of 3.4 and a DSr [2, 17] of 2.5. It also gave a DSr [2, 18] of 7.1, a DSr [2, 19] of 6.2 and a DSr [2, 20] of 6.2. The DSr [2, 21] was 0.022, the DSr [2, 22] was 0.006 and the “Strontium distribution ratio, contact E1” value [2, 23] was 10.5. The “Strontium distribution ratio, contact St1” value [2, 24] was 0.06, the “Strontium distribution ratio, contact E2” value [2, 25] was 8.6 and the “Strontium distribution ratio, contact St2” value [2, 26] was 0.01. The “Strontium distribution ratio, contact E3” value [2, 27] was 8.5, the “Cesium distribution ratio as a function of contact time” value ([3]; contact time 0 days with 1.5 M HNO3, 0.007 M calixarene, 0.075 M DtBuCH18C6, 0.75 M Cs-7SB, 0.003 M TOA in ISOPAR L) was 4.2 and the “Cesium distribution ratio as a function of contact time” value ([3]; contact time 34 days with 1.5 M HNO3) was 3.2. The “Cesium distribution ratio as a function of contact time” value ([3]; contact time 70 days with 1.5 M HNO3) was 3.6 and the “Cesium distribution ratio as a function of contact time” value ([3]; contact time 278 days with 1.5 M HNO3) was 2.8.
